Assay results published in the supplement of paper PMC10331698.
± gives the standard deviation of the averaged measurements.

Tests used:
Test in all cases: level (log10 ratio to DMSO vehicle control); higher = higher biomarker level / cell amount than vehicle control
Conditions in all cases: in DMSO
[1] = compound: O=P(O)(O)CCC(F)(F)C(F)(F)C(F)(F)C(F)(F)C(F)(F)C(F)(F)C(F)(F)C(F)(F)F [((Perfluorooctyl)ethyl)phosphonic acid]
Procedure: (§1)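 BioMAP Diversity Plus panel of 12 human primary cell co-culture systems (3C, 4H, LPS, SAg, BT, BF4T, BE3C, CASM3C, HDF3CGF, KF3CT, MyoF, Mphg). Compounds were added 1 h before stimulation and left for 24 h (MyoF 48 h; BT 72 h for soluble read-outs or 6 d for IgG). Biomarkers were read by ELISA, cytotoxicity by SRB, PBMC viability and proliferation by Alamar Blue. Each well value was divided by the mean of 8 DMSO control wells on the same plate and log10 transformed; duplicate blinded samples were tested at 4 concentrations.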

[2] = compound: O=C(O)C(F)(F)C(F)(F)C(F)(F)C(F)(F)C(F)(F)C(F)(F)C(F)(F)C(F)(F)C(F)(F)C(F)(F)C(F)(F)C(F)(F)F [Perfluorotridecanoic acid]
Procedure: as §1

Azathioprine = compound: Cn1cnc([N+](=O)[O-])c1Sc1ncnc2[nH]cnc12 [Azathioprine]
Procedure: as §1

[3] = compound: O=C(O)CCC(F)(F)C(F)(F)C(F)(F)F [3:3 Fluorotelomer carboxylic acid]
Procedure: as §1

[4] = compound: OCC(F)(F)C(F)(F)C(F)(F)C(F)(F)C(F)(F)C(F)F [1H,1H,7H-Dodecafluoro-1-heptanol]
Procedure: as §1

Perfluorooctanamidine = compound: N=C(N)C(F)(F)C(F)(F)C(F)(F)C(F)(F)C(F)(F)C(F)(F)C(F)(F)F [Perfluorooctanamidine]
Procedure: as §1

Test System	level (log10) ([1]; 6700 nM)	level (log10) ([1]; 20000 nM)	level (log10) ([1]; 60000 nM)	level (log10) ([2]; 1500 nM)	level (log10) ([2]; 4400 nM)	level (log10) ([2]; 13000 nM)	level (log10) ([2]; 40000 nM)	level (log10) (Azathioprine; 1400 nM)	level (log10) (Azathioprine; 4200 nM)	level (log10) (Azathioprine; 13000 nM)	level (log10) (Azathioprine; 38000 nM)	level (log10) ([3]; 6700 nM)	level (log10) ([3]; 20000 nM)	level (log10) ([3]; 60000 nM)	level (log10) ([4]; 6700 nM)	level (log10) ([4]; 20000 nM)	level (log10) ([4]; 60000 nM)	level (log10) (Perfluorooctanamidine; 6700 nM)	level (log10) (Perfluorooctanamidine; 20000 nM)	level (log10) (Perfluorooctanamidine; 60000 nM)
3C:CD87/uPAR	0.0455 ± 0.043	0.071 ± 0.025	0.0885 ± 0.059	0.065 ± 0.025	0.0355 ± 0.039	0.066 ± 0.011	0.059 ± 0.016	0.0255 ± 0.037	0.016 ± 0.033	0.0565 ± 0.018	0.044 ± 0.0071	0.0055 ± 0.011	-0.017 ± 0.0057	-0.0125 ± 0.018	0.023 ± 0.0028	0.002 ± 0.0099	-0.0045 ± 0.012	0.0265 ± 0.059	0.0135 ± 0.028	0.042
3C:CXCL8/IL-8	0.0315 ± 0.019	0.03 ± 0.018	0.0685 ± 0.0092	0.017 ± 0.025	-0.01 ± 0.017	-0.144 ± 0.19	-0.715 ± 0.14	0.016 ± 0.054	-0.01 ± 0.011	-0.026 ± 0.0085	-0.0455 ± 0.018	-0.004 ± 0.0014	0.0045 ± 0.012	0.023 ± 0.044	0.0125 ± 0.032	0.0115 ± 0.021	0.0265 ± 0.0064	0.018 ± 0.011	0.022 ± 0.0085	0.08
3C:CXCL9/MIG	0.006 ± 0.0057	-0.0045 ± 0.005	0.0185 ± 0.0064	0.0055 ± 0.0035	0.0005 ± 0.00071	0.003 ± 0.0085	0.0035 ± 0.00071	0.003	0.003 ± 0.0014	0.0025 ± 0.005	0.0125 ± 0.0035	0.0045 ± 0.0021	-0.001 ± 0.0028	0.001 ± 0.0014	0.0065 ± 0.0078	-0.0005 ± 0.015	-0.0015 ± 0.0021	0.007 ± 0.0071	-0.0165 ± 0.0035	0.005
3C:HLA-DR	0.005 ± 0.0085	0.001 ± 0.0042	-0.0285 ± 0.023	-0.011 ± 0.0028	-0.0135 ± 0.011	-0.021 ± 0.02	-0.0095 ± 0.011	0.006 ± 0.013	-0.001 ± 0.021	0.005 ± 0.048	0.005 ± 0.042	-0.0055 ± 0.029	-0.0155 ± 0.013	-0.0105 ± 0.0092	0.008 ± 0.018	-0.0055 ± 0.016	-0.0105 ± 0.013	0.0025 ± 0.016	-0.0295 ± 0.0064	-0.035
3C:Proliferation	-0.0505 ± 0.019	-0.172 ± 0.071	-0.481 ± 0.18	-0.056 ± 0.048	-0.025 ± 0.0085	-0.348 ± 0.38	-0.811 ± 0.1	-0.04 ± 0.057	-0.038 ± 0.081	-0.048 ± 0.018	-0.179 ± 0.031	-0.0215 ± 0.054	-0.0175 ± 0.091	0.0195 ± 0.049	-0.0365 ± 0.091	-0.0885 ± 0.07	-0.034 ± 0.045	-0.0395 ± 0.018	-0.054 ± 0.028	-0.194
3C:SRB	0.01 ± 0.016	0.001 ± 0.016	-0.078 ± 0.045	-0.017 ± 0.0085	-0.0125 ± 0.0035	-0.012 ± 0.016	-0.0125 ± 0.028	-0.006 ± 0.0014	-0.016 ± 0.0071	-0.0275 ± 0.005	-0.0955 ± 0.019	-0.0095 ± 0.00071	-0.006 ± 0.0028	-0.012 ± 0.0099	-0.005 ± 0.0071	-0.006 ± 0.0071	-0.0025 ± 0.00071	0.008 ± 0.016	0.0195 ± 0.019	-0.054
4H:CCL2/MCP-1	-0.01 ± 0.0042	-0.0135 ± 0.022	0.004 ± 0.042	0.0035 ± 0.037	-0.0025 ± 0.026	-0.0095 ± 0.0092	-0.033 ± 0.014	0.018 ± 0.096	0.0255 ± 0.04	-0.035 ± 0.1	0.0055 ± 0.042	-0.032 ± 0.048	-0.0525 ± 0.012	0.007 ± 0.013	-0.0365 ± 0.016	-0.028 ± 0.0085	0.0135 ± 0.093	0.0095 ± 0.011	-0.0055 ± 0.0064	0.061
4H:CCL26/Eotaxin-3	-0.011 ± 0.0085	-0.025 ± 0.0057	-0.108 ± 0.033	-0.0145 ± 0.018	-0.0395 ± 0.033	-0.056 ± 0.0071	-0.0655 ± 0.033	0.016 ± 0.0099	-0.009 ± 0.021	-0.003 ± 0.011	-0.0255 ± 0.035	-0.005 ± 0.0071	-0.004	-0.0225 ± 0.043	-0.0075 ± 0.0078	-0.023 ± 0.0042	-0.0155 ± 0.022	-0.006 ± 0.0042	-0.033 ± 0.0042	-0.118
4H:CD62P/P-selectin	-0.0285 ± 0.019	-0.0235 ± 0.015	-0.126 ± 0.022	-0.0285 ± 0.016	-0.017 ± 0.0085	0.0125 ± 0.013	0.021 ± 0.011	-0.019 ± 0.062	-0.007 ± 0.031	-0.0075 ± 0.036	-0.108 ± 0.011	0.0135 ± 0.042	0.0445 ± 0.025	-0.003 ± 0.02	-0.003 ± 0.078	0.051 ± 0.067	0.032 ± 0.016	-0.0165 ± 0.012	-0.007 ± 0.0085	-0.032
4H:CD87/uPAR	0.018 ± 0.058	-0.003 ± 0.024	0.102 ± 0.0064	0.0035 ± 0.028	-0.03 ± 0.017	-0.0175 ± 0.015	-0.0515 ± 0.074	0.0045 ± 0.018	-0.03 ± 0.035	-0.0015 ± 0.00071	0.0315 ± 0.00071	0.001 ± 0.027	-0.014 ± 0.0071	-0.045 ± 0.011	0.016 ± 0.014	0.001 ± 0.014	-0.019 ± 0.031	0.0455 ± 0.097	0.055 ± 0.028	0.146
4H:CD106/VCAM-1	0.011 ± 0.0099	-0.0095 ± 0.016	-0.002 ± 0.0028	-0.028 ± 0.0071	-0.065 ± 0.04	-0.107 ± 0.0064	-0.089 ± 0.018	-0.024 ± 0.017	-0.0205 ± 0.025	-0.0655 ± 0.015	-0.132 ± 0.044	-0.009 ± 0.0028	-0.014 ± 0.014	-0.0165 ± 0.013	0.009 ± 0.034	-0.016 ± 0.0085	-0.0125 ± 0.0092	0.0015 ± 0.011	-0.028 ± 0.016	-0.132
4H:SRB	-0.0005 ± 0.0064	0.0025 ± 0.022	-0.055 ± 0.052	-0.0115 ± 0.0064	-0.022 ± 0.0014	-0.054 ± 0.042	-0.443 ± 0.037	-0.0135 ± 0.0092	-0.0075 ± 0.005	-0.015 ± 0.0085	-0.0485 ± 0.019	-0.0125 ± 0.022	-0.003 ± 0.013	-0.0185 ± 0.012	-0.0055 ± 0.028	-0.0215 ± 0.012	-0.0075 ± 0.029	0.0035 ± 0.0021	-0.006 ± 0.0071	-0.029
4H:VEGFR2	-0.016 ± 0.033	-0.024 ± 0.035	0.007 ± 0.0057	0.0375 ± 0.0078	-0.0205 ± 0.037	-0.0125 ± 0.1	-0.257 ± 0.1	-0.0045 ± 0.012	0.0015 ± 0.047	-0.0195 ± 0.0078	0.0155 ± 0.06	-0.0045 ± 0.0078	-0.0135 ± 0.011	0.0075 ± 0.063	-0.011 ± 0.044	0.0075 ± 0.061	0.014 ± 0.03	-0.0135 ± 0.023	-0.023 ± 0.025	0.064
BE3C:CD54/ICAM-1	-0.0275 ± 0.00071	-0.024	0.0045 ± 0.012	0.0015 ± 0.04	-0.0285 ± 0.015	-0.011 ± 0.0085	0.0035 ± 0.0021	0 ± 0.018	-0.0115 ± 0.013	-0.0075 ± 0.0078	-0.001 ± 0.031	-0.009 ± 0.0042	0.017 ± 0.02	0.002 ± 0.0057	0.0205 ± 0.029	0.01 ± 0.027	0.0145 ± 0.012	-0.017 ± 0.0028	-0.019 ± 0.0057	0.027
